US20220323406A1, “METHODS AND COMPOSITIONS FOR DIFFERENTIATING STEM CELLS” (Massachusetts Institute of Technology, priority 2019, published 2022)
Where a name gives a salt, the structure may show the parent alone.

Columns and labels:
[1] = system: ENR+CD organoids (ISC to Paneth cell differentiation); test: Primary screen: basal (non-stimulated) lysozyme secretion LYZ.NS, 2.5-D 384-well ENR+CD organoid differentiation; assay type: cell-based, mouse; settings: primary screen; for Dose.FC.LYZ.NS: FC relative to plate median; for Z.LYZ.NS: standard z score
Excerpt: (§1) High-throughput screening.

[2] = system: ENR+CD organoids (ISC to Paneth cell differentiation); test: Primary screen: CCh-stimulated lysozyme secretion LYZ.S, 2.5-D 384-well ENR+CD organoid differentiation; assay type: cell-based, mouse; settings: primary screen, FC relative to plate median
Excerpt: as §1

[3] = system: ENR+CD organoids; test: Primary screen: ATP (CellTiter-Glo 3D, CTG) cell number/viability, 2.5-D 384-well ENR+CD organoids; settings: primary screen; for Dose.FC.CTG: FC relative to plate median; for Z.CTG: standard z score;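 on all read-outs here: compounds given at plating and again on day 3 over a 6-day differentiation from ENR+CV stem-cell-enriched precursors, ATP measured on day 6, plate median as control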

Structure (SMILES) | Dose.FC.LYZ.NS ([1]; dose 0.08 uM) [log2 fold change] | Z.LYZ.NS ([1]; dose 0.08 uM) | Dose.FC.LYZ.NS ([1]; dose 0.40 uM) [log2 fold change] | Z.LYZ.NS ([1]; dose 0.40 uM) | Dose.FC.LYZ.NS ([1]; dose 2.00 uM) [log2 fold change] | Z.LYZ.NS ([1]; dose 2.00 uM) | Dose.FC.LYZ.NS ([1]; dose 10.00 uM) [log2 fold change] | Z.LYZ.NS ([1]; dose 10.00 uM) | Dose.FC.LYZ.S ([2]; dose 0.08 uM) [log2 fold change] | Dose.FC.LYZ.S ([2]; dose 0.40 uM) [log2 fold change] | Dose.FC.LYZ.S ([2]; dose 2.00 uM) [log2 fold change] | Dose.FC.LYZ.S ([2]; dose 10.00 uM) [log2 fold change] | Dose.FC.CTG ([3]; dose 0.08 uM) [log2 fold change] | Z.CTG ([3]; dose 0.08 uM) | Dose.FC.CTG ([3]; dose 0.40 uM) [log2 fold change] | Z.CTG ([3]; dose 0.40 uM) | Dose.FC.CTG ([3]; dose 2.00 uM) [log2 fold change] | Z.CTG ([3]; dose 2.00 uM) | Dose.FC.CTG ([3]; dose 10.00 uM) [log2 fold change] | Z.CTG ([3]; dose 10.00 uM)
CC(C)(C)c1cnc(CSc2cnc(NC(=O)C3CCNCC3)s2)o1 [SNS-032 (BMS-387032)] | 0.049 | 0.428 | −0.143 | −1.241 | −0.276 | −2.399 | −0.254 | −2.214 | 0.070 | −0.206 | −0.301 | −0.361 | −0.075 | −0.180 | −0.083 | −0.198 | −0.915 | −2.186 | −1.009 | −2.411
Oc1c2ccccc2c2c3c(cccc13)N=N2 [SP600125] | 0.135 | 1.174 | 0.027 | 0.232 | 0.152 | 1.321 | 0.022 | 0.187 | 0.188 | 0.092 | 0.090 | 0.084 | 0.197 |  | 0.145 |  | 0.103 |  | −0.020 | 
O=C(Nc1cc(C(F)(F)F)ccc1N1CCCCC1)c1ccncc1 [SRPIN340] | 0.115 | 1.004 | 0.040 | 0.348 | 0.097 | 0.846 | 0.022 | 0.192 | 0.112 | 0.098 | 0.100 | 0.078 | 0.421 | 1.005 | 0.445 | 1.063 | 0.453 | 1.083 | 0.467 | 1.115
O=C(Nc1ccccc1-c1cn2c(CN3CCNCC3)csc2n1)c1cnc2ccccc2n1 [SRT1720] | 0.172 | 1.495 | 0.112 | 0.972 | 0.070 | 0.613 | −0.104 | −0.906 | 0.190 | 0.099 | 0.051 | −0.193 | 0.529 | 1.264 | 0.394 | 0.940 | 0.339 | 0.810 | −1.016 | −2.427
COc1c(C)c(C(=O)c2ccc(N)c(C(=O)[O-])c2)n2ccccc12.[Na+] [SSR128129E] | 0.093 | 0.807 | 0.039 | 0.339 | 0.030 | 0.257 | −0.098 | −0.850 | 0.086 | 0.122 | 0.023 | −0.095 | 0.088 | 0.210 | 0.228 | 0.545 | 0.122 | 0.291 | −0.026 | −0.063
Cc1ccc(S(=O)(=O)Cc2nc(-c3ccc(C(=O)NCc4cccnc4)cc3)oc2C)cc1 [STF-118804] | −0.155 | −1.349 | −0.210 | −1.824 | −0.172 | −1.502 | −0.177 | −1.541 | −0.257 | −0.212 | −0.271 | −0.300 | −0.151 | −0.360 | −1.401 | −3.346 | −0.916 | −2.189 | −1.338 | −3.195
Cc1[nH]c(/C=C2\C(=O)Nc3ccc(S(=O)(=O)N(C)c4cccc(Cl)c4)cc32)c(C)c1C(=O)N1CCN(C)CC1 [SU11274] | 0.084 | 0.735 | 0.120 | 1.043 | 0.005 | 0.047 | −0.207 | −1.804 | 0.115 | 0.298 | 0.008 | −0.300 | 0.357 |  | 0.270 |  | 0.058 |  | −0.818 | 
O=C(/C=C/c1ccccc1)NC(NC(=S)Nc1ccc(Cl)cc1)C(Cl)(Cl)Cl (stereo not shown) [Sal003] | 0.116 | 1.013 | 0.183 | 1.595 | 0.077 | 0.670 | −0.246 | −2.142 | 0.092 | 0.067 | 0.040 | −0.408 | 0.191 | 0.456 | 0.155 | 0.370 | 0.196 | 0.468 | −0.829 | −1.981
Cn1cnc2c(F)c(Nc3ccc(Br)cc3Cl)c(C(=O)NOCCO)cc21 [Selumetinib (AZD6244)] | 0.021 | 0.181 | −0.022 | −0.188 | −0.097 | −0.847 | −0.140 | −1.220 | 0.004 | −0.047 | −0.175 | −0.211 | 0.164 | 0.393 | −0.165 | −0.395 | −0.257 | −0.613 | −0.852 | −2.035
CC(C)[C@H](O)C(=O)N[C@@H](C)C(=O)N[C@@H]1C(=O)N(C)CCc2ccccc21 [Semagacestat (LY450139)] | 0.017 | 0.151 | −0.021 | −0.181 | −0.081 | −0.704 | −0.108 | −0.942 | −0.014 | −0.006 | −0.081 | −0.162 | 0.141 | 0.338 | −0.207 | −0.494 | −0.128 | −0.306 | −0.856 | −2.045
CN[C@H]1CC[C@@H](c2ccc(Cl)c(Cl)c2)c2ccccc21 [Sertraline HCl] | −0.026 | −0.227 | −0.082 | −0.714 | 0.052 | 0.450 | −0.005 | −0.044 | −0.048 | −0.076 | 0.023 | −0.021 | −0.079 |  | 0.087 |  | 0.066 |  | 0.043 | 
